The test system of test [1] is Lepidium sativum L. seeds. The following applies: 24 h incubation, mean(±SD), n = 3.
Test [2] deals with Lepidium sativum L. roots. To be noted: 24 h incubation, mean(±SD), n = 3.
The subject of test [3] is L929 fibroblasts. Description: Mammalian cell cytotoxicity screening, resazurin viability. The test is classed as cell-based, mouse.
[4] abbreviates: 0.01% (w/w) compound in the medium.
Setting [5] is: 0.03% (w/w) compound in the medium.
[6] abbreviates: 0.05% (w/w) compound in the medium.
Setting [7] is: 0.10% (w/w) compound in the medium.
Where [8] appears, read: 0.30% (w/w) compound in the medium.
Setting [9] is: 0.50% (w/w) compound in the medium.
The mark [10] stands for this setting: 1.00% (w/w) compound in the medium.
The mark [11] stands for this setting: 2.00% (w/w) compound in the medium.
[12] abbreviates: 3.00% (w/w) compound in the medium.
Setting [13] is: 4.00% (w/w) compound in the medium.
Setting [14] is: 5.00% (w/w) compound in the medium.

Consider four compounds from article PMC12029836, “Phytotoxicity, Cytotoxicity, and Antimicrobial Activity of Triethanolammonium Amino Acids Salts” (Molecules, 2025).

Molecules are shown by their SMILES. Values joined by “and” are separate entries in the source; they are usually repeats but may differ in a detail not shown here. Equal values may be shown once. Read-outs that look alike come from different tables or passages of the source.

Consider `NC(CCC(=O)O)C(=O)O.OCCN(CCO)CCO.OCCN(CCO)CCO` (stereo not drawn) [[TEA]2[Glu]], for which the “Inhibition of the Lepidium sativum seeds germination (ISG, %)” value (shortened to “Inhibition … (ISG, %)”) in test [1] (setting [4]) is listed as 0.0(±0.0) %; in test [1] (setting [5]), 0.0(±0.0) %; in test [1] (setting [6]) it was 0.0(±0.0) %; in test [1] (setting [7]), 3.7(±0.9) %; in test [1] (setting [8]) it was 5.6(±0.9) %; in test [1] (setting [9]) it was 7.4(±0.9) %. For the same compound, the “Inhibition … (ISG, %)” value in test [1] (setting [10]) is 14.8(±2.5) %; in test [1] (setting [11]), 22.2(±2.2) %; in test [1] (setting [12]), 29.6(±1.7) %; in test [1] (setting [13]), 37.0(±0.5) %; in test [1] (setting [14]), 63.0(±0.5) %. The “Inhibition of the root growth in pregerminated Lepidium sativum seeds (IRG, %)” value (from here on “Inhibition of the root growth … (IRG, %)”) in test [2] (setting [4]) is listed as 10.0(±2.9%; in test [2] (setting [5]), 18.1(±2.7) %; in test [2] (setting [6]), 21.3(±2.7) %; in test [2] (setting [9]) it was 44.4(±2.2) %; in test [2] (setting [10]), 51.5(±2.1) %; in test [2] (setting [11]), 68.2(±1.3) %. The “Inhibition of the root growth … (IRG, %)” value in test [2] (setting [12]) is 78.5(±0.6) %; in test [2] (setting [13]), 87.0(±0.4) %; in test [2] (setting [14]) it was 90.5(±0.7) %.
For `NCC(=O)O.OCCN(CCO)CCO` [[TEA][Gly]], the “Inhibition … (ISG, %)” value in test [1] (setting [4]) is 0.0(±0.5) %; in test [1] (setting [5]) it was 0.0(±0.5) %; in test [1] (setting [6]), 1.7 (±1.2) %; in test [1] (setting [7]) it was 3.4 (±1.3) %; in test [1] (setting [8]), 6.9 (±0.8) %; in test [1] (setting [9]), 13.8(±2.6) %. The “Inhibition … (ISG, %)” value was 20.7(±3.1) % in test [1] (setting [10]), 63.8% in test [1] (setting [12]), 81.0(±1.7) % in test [1] (setting [13]) and 87.9(±0.9) % in test [1] (setting [14]). The “Inhibition of the root growth … (IRG, %)” value in test [2] (setting [4]) is recorded as 8.7%; in test [2] (setting [5]) it was 16.2(±1.8) %; in test [2] (setting [6]), 20.9(±2.0) %; in test [2] (setting [7]) it was 20.6(±1.7) %; in test [2] (setting [8]), 49.3(±1.3) %; in test [2] (setting [9]), 62.3(±1.3) %. Besides, the “Inhibition of the root growth … (IRG, %)” value was 75.7(±0.7) % in test [2] (setting [10]); 80.6(±0.6) % in test [2] (setting [11]); 93.3(±0.5) % in test [2] (setting [12]); 96.2(±0.4) % in test [2] (setting [13]); 95.9(±0.4) % in test [2] (setting [14]).
Consider `CCC(C)C(N)C(=O)O.OCCN(CCO)CCO` [[TEA][Ile]], for which the “Inhibition … (ISG, %)” value in test [1] (setting [4]) is on record as 0.0(±1.9) %; in test [1] (setting [5]), 0.0(±1.4) %; in test [1] (setting [6]), 0.0(±0.8) %; in test [1] (setting [7]), 0.0(±0.5) %; in test [1] (setting [8]), 3.6(±2.2) %; in test [1] (setting [9]) it was 5.4(±0.5) %. For the same compound, the “Inhibition … (ISG, %)” value in test [1] (setting [10]) is reported as 17.9(±2.6) %; in test [1] (setting [11]), 23.2(±0.9) %; in test [1] (setting [12]), 26.8(±0,9) %; in test [1] (setting [13]) it was 39.3(±2.1) %; in test [1] (setting [14]), 80.4(±1.3) %. The “Inhibition of the root growth … (IRG, %)” value in test [2] (setting [4]) was 2.9(±1.7) %; in test [2] (setting [5]), 27.8(±1.4) %; in test [2] (setting [6]), 31.4(±1.9) %; in test [2] (setting [7]), 35.1(±1.5) %; in test [2] (setting [8]), 34.6(±1.6) %; in test [2] (setting [9]), 36.9(±1.6) %. The “Inhibition of the root growth … (IRG, %)” value in test [2] (setting [10]) is 56.9(±1.2) %; in test [2] (setting [11]), 70.9(±1.0) %; in test [2] (setting [12]) it was 72.5(±0.7) %; in test [2] (setting [13]), 77.5(±0.6) %; in test [2] (setting [14]) it was 80.4(±0.3) %.
Turning to `N[C@@H](Cc1ccccc1)C(=O)O.OCCN(CCO)CCO` [[TEA][Phe]], the “Inhibition … (ISG, %)” value in test [1] (setting [4]) is 0.0(±0.0) %; in test [1] (setting [5]), 0.0(±0.0) %; in test [1] (setting [6]) it was 0.9(±0.8) %; in test [1] (setting [7]), 1.8(±0.9) %; in test [1] (setting [8]) it was 3.5(±1.7) %; in test [1] (setting [9]), 5.3(±0.8) %. For the same compound, the “Inhibition … (ISG, %)” value is 8.8(±1.3) % in test [1] (setting [10]), 10.5(±0.8) % in test [1] (setting [11]), 22.8(±2.4) % in test [1] (setting [13]) and 86.0(±2.1) % in test [1] (setting [14]). The ED20 in test [3] (24h exposure) is listed as 0.37±0.04%; in test [3] (48h exposure), 0.38±0.04%. For the same compound, the ED50 in test [3] (24h exposure) was 0.72±0.07% and 0.72%; in test [3] (48h exposure), 0.63±0.04%. Moreover, the figures for the ED80 in test [3] (24h exposure) and in test [3] (48h exposure) were 1.20±0.19% and 0.91±0.14%, respectively. The “Inhibition of the root growth … (IRG, %)” value in test [2] (setting [4]) is 23.6%; in test [2] (setting [5]), 24.4(±2.0) %; in test [2] (setting [6]) it was 28.5(±2.0) %; in test [2] (setting [7]) it was 44.2(±1.6) %; in test [2] (setting [8]), 48.1(±1.7) %; in test [2] (setting [9]), 53.1(±1.3) %. Besides, the “Inhibition of the root growth … (IRG, %)” value in test [2] (setting [10]) was 60.2(±1.4) %; in test [2] (setting [11]), 69.6(±1.1) %; in test [2] (setting [12]) it was 78.3(±0.9) %; in test [2] (setting [13]), 83.5(±0.9) %; in test [2] (setting [14]), 92.1(±0.6) %.
